Assay results: PMC6271500, “Bowman-Birk Protease Inhibitor from Vigna unguiculata Seeds Enhances the Action of Bradykinin-Related Peptides” (Molecules, 2014)
Each block holds one substance with its values, some of them ahead of it. Where no end group is shown, it is not given here.

What was measured:
[1] = molecular target: Bk1, [Val]1[Thr]6-bradykinyl-Val-Asp relative to bradykinin: R1V;S6T; C-terminal extension Val10-Asp11; test: Intrinsic tryptophan (Trp82) fluorescence quenching titration; excitation 295 nm, emission 300-400 nm (analysed at 355 nm); details: 25 °C, not stated for the fluorescence assays at pH 5.0, 7.4 and 9.0 (2 mM Tris-HCl pH 7.4 is given only for DLS and CD)
[2] = molecular target: Bk2, [Val]1[Thr]6-bradykinyl-Gln-Ser relative to bradykinin: R1V;S6T; C-terminal extension Gln10-Ser11; test: as above; details: 25 °C, not stated for the fluorescence assays at pH 5.0, 7.4 and 9.0 (2 mM Tris-HCl pH 7.4 is given only for DLS and CD)
Bradykinin (Bk) = Bradykinin (Bk) (UniProt P01042); test: as above; details: 25 °C, not stated for the fluorescence assays at pH 5.0, 7.4 and 9.0 (2 mM Tris-HCl pH 7.4 is given only for DLS and CD)
UniProt P01042, sequence (P01042 whole entry, looked up, the tested form may be a part): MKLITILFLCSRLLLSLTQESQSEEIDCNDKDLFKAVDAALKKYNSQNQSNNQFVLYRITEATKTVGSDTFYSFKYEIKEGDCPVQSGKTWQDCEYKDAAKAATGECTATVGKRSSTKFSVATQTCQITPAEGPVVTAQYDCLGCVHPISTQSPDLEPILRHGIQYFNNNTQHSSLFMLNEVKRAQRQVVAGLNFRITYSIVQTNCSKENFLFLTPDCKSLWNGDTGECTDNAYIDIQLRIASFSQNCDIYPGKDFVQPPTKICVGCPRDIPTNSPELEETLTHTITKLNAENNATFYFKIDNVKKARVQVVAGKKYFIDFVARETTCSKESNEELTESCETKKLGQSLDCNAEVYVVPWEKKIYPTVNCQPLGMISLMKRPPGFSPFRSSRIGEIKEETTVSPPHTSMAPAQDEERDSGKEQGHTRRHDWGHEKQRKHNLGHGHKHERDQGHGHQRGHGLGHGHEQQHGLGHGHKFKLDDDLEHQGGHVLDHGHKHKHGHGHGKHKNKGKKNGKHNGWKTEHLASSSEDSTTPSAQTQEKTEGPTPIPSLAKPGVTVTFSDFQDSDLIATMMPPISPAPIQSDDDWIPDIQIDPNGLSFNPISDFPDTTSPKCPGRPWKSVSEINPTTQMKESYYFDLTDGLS

[3] = Cardiovascular effects of infusion of Bk and Bk-related peptides with BTCI or vehicle in anesthetized rats; assay type: in vivo, male Wistar rats; details: for aortic vasodilation (change in AVC) / change in mean arterial pressure (MAP) / renal vasodilation (change in RVC): from the baseline value, mean ± SEM, 6 experiments
Protocol: All experiments were conducted on adult male Wistar rats (280–350 g). They were obtained from the central animal house of the Federal University of Goiás. Experimental procedures were designed with strict adherence to the National Health Institute Guidelines for Care and Use of Laboratory Animals as approved by the Ethics Committee, Federal University of Goiás (034/12).
On the day of experiments, the rats were anesthetized with halothane (2%–3% in 100% O2; Cristália Ltda, Itapira, SP, Brazil) prior to the catheterization of the right femoral vein and artery. After the catheter placement, the rats were removed from the halothane and the anesthesia was maintained with urethane (1.2 g·kg^−1 b.wt., i.v.; Sigma-Aldrich Co.). The trachea was cannulated to reduce airway resistance. The body temperature was kept at 37 ± 0.5 °C with a thermostatically controlled heated table.
Renal blood flow (RBF) and aortic blood flow (ABF) were measured with an ultrasonic transit-time flowmeter (Transonic Systems, Inc., Ithaca, NY, USA). Data were recorded continuously with an analog-to-digital converter (PowerLab 4/25, ML845, AD Instruments, Bella Vista, Australia). Mean arterial pressure (MAP) was determined from the pulsatile signal. Aortic vascular conductance (AVC) and renal vascular conductance (RVC) were calculated by a ratio of ABF and RBF divided by MAP, and were expressed as percentage of baseline. Increasing doses of BTCI (0.3, 3, 30 and 300 µg·kg^−1, i.v.) were infused.
Results are presented as means ± S.E.M. The effects of infusion of Bk, Bk-related peptides and BTCI on cardiovascular parameters were analyzed by one-way ANOVA. […] A value of Student’s t-test p < 0.05 was considered to denote a significant difference.

BTCI [4] = test: Fluorescence quenching of BTCI by Bk-related peptides; assay type: binding, Vigna unguiculata; details: for Binding constant Kb (association) of BTCI in complex with peptide / Stern-Volmer quenching constant KSV of BTCI in complex with peptide: BTCI 25 µM, peptide 25-500 µM; for Stern-Volmer quenching constant KSV of BTCI in complex with peptide: excitation 295 nm, emission at 355 nm
Protocol: Fluorescence measurements were performed at pH 5.0, 7.4 and 9.0 and 25 °C using the Jasco FP-6500 spectrofluorimeter (Jasco Analytical Instruments) coupled to a Jasco ETC-273T Peltier system (Jasco Analytical Instruments) with water circulation. Both excitation and emission slit were fitted to 5.0 nm and the excitation and emission wavelength were 295 nm and 300–400 nm, respectively. The concentration of BTCI was 25 µM, whereas the concentration of Bk and Bk-related peptides varied from 25 to 500 µM. The BTCI in complex with peptides were investigated by fluorescence quenching as a function of pH. The averages of five fluorescence spectra were recorded and processed by the program Spectra Manager (Jasco Analytical Instruments). The fluorescence emissions were fitted according to the classic Stern-Volmer equation (Equation (2)): F0/F = 1 + KSV[Q] (2) where F and F0 are the fluorescence intensities in the presence and absence of quencher, respectively, KSV is Stern-Volmer constant and Q is the concentration of the quencher.
The binding constants for BTCI, Bk and Bk-related peptides interaction were calculated according to Equation (3): Log[(F0 − F)/F] = LogKb + nLog[Q] (3) where Kb is the binding constant and n is the number of binding sites per BTCI [47].

[5] = Dynamic light scattering, free peptides and free BTCI; assay type: physicochemical; details: 25 µM, 2 mM Tris-HCl pH 7.4, 37 °C
Protocol: (§1) The hydrodynamic properties of the BTCI through the complex formation with Bk and analogues were monitored using DLS technique with laser source operated at 800 nm on the DynaPro LSR model (Wyatt Technology Corporation, Santa Barbara, CA, USA). The internal temperature was controlled by a Peltier system coupled to the detector. The Bk, Bk-related peptides, BTCI and BTCI-Bk, BTCI-Bk-related peptides complexes, were incubated for 30 minutes in 2 mM Tris-HCl pH 7.4 and then centrifuged at 5000 g and filtered ([…]) before the DLS experiments. The average of 100 acquisitions for each measure was considered for BTCI (25 µM) and synthetic Bk-related peptides (25 µM) separately and subsequently for the BTCI-Bk complexes (1:1). The formation of complexes was analyzed at 37 °C, considering the relationship of the scattered light intensity signal and the hydrodynamic diameter of the samples, using the Dynamics V6 program (Wyatt Technology Corporation).

BTCI [6] = test: Dynamic light scattering, BTCI-Bk complex formation; assay type: binding, Vigna unguiculata; details: BTCI 25 µM : peptide 25 µM (1:1), 30 min, 2 mM Tris-HCl pH 7.4, 37 °C
Protocol: as §1

[7] = system: guinea pig (Cavia porcellus) ileum; test: Smooth muscle constriction force assay, guinea pig ileum
Protocol: Male guinea pigs (Cavia porcellus) weighing between 200 and 300 g and fasted for 24 h were euthanized using an overdose of anesthetic at 120 mg/kg (ketamine and xylazine). The protocol was approved by the Committee on the Ethics of Animal Experiments of the Institute of Biology, University of Brasilia (Proc. Number 737402/2008). Segments of 2 cm from the terminal portion of the ileum were removed and washed in Tyrode’s solution (g/L: 8.00 NaCl,0.20 KCl, 0.20 CaCl2, 0.21 MgCl2), and attached to a glass rod that was immersed in a physiological bath chamber with a capacity of 10 mL containing Tyrode solution at 37 °C. In the opposite region, a thread of silk was attached to the F-60 isometric transducer connected to a polygraph (NARCO Bio-Systems, Houston, TX, USA). The bath was kept aerated constantly with carbogen (95% O2 + 5% CO2). Previously, as a control, smooth muscle response was analyzed using Bk from Sigma Aldrich. Experiments were done in triplicate, and constriction force was analyzed by addition of Bk and analogues in the absence or presence of BTCI, in three concentrations: 1, 5 or 10 µM. The hypotensive effects of the complexes were also evaluated in the presence of trypsin or chymotrypsin. After each experiment, the bath solution was exchanged three times in order to remove the drug used. Statistical analysis was carried out using the Paleontological Statistics (PAST) Software Package for Education and Data Analysis. A value of Student’s t-test p < 0.05 was considered to denote a significant difference.

trypsin = test: Pretreatment of peptides with trypsin; assay type: in vitro ADME
[8] = peptide 120 µg·kg^−1 + BTCI 3 µg·kg^−1, i.v.
[9] = peptide 120 µg·kg^−1 i.v. + BTCI 3 µg·kg^−1 i.v.
[10] = peptide 120 µg·kg^−1 i.v., without BTCI

Kb ([1]; pH 5.0): 0.84 ×10^3 M^−1 | Kb ([1]; pH 7.4): 1.02 ×10^3 M^−1 | Kb ([1]; pH 9.0): 0.23 ×10^3 M^−1 | Kb ([2]; pH 5.0): 0.59 ×10^3 M^−1 | Kb ([2]; pH 7.4): 0.22 ×10^3 M^−1 | Kb ([2]; pH 9.0): 1.81 ×10^3 M^−1 | Kb (Bradykinin (Bk); pH 5.0): 0.21 ×10^3 M^−1 | Kb (Bradykinin (Bk); pH 7.4): 9.68 ×10^3 M^−1 | Kb (Bradykinin (Bk); pH 9.0): 0.71 ×10^3 M^−1
Substance: Black-eyed pea trypsin and chymotrypsin inhibitor (BTCI), Bowman-Birk inhibitor

Substance: Bradykinin [Bk, reference compound]
effect of association with BTCI on aortic vasodilation [3, 8]: potentiated | effect of association with BTCI on renal vasodilation [3, 8]: potentiated renal | aortic vasodilation (change in AVC) [3, 9]: 16 ± 1.4% | change in mean arterial pressure (MAP) [3, 9]: −10 ± 1.1 mmHg | renal vasodilation (change in RVC) [3, 9]: 12 ± 1.1% | aortic vasodilation (change in AVC) [3, 10]: 9 ± 1.6% | change in mean arterial pressure (MAP) [3, 10]: −7 ± 1.2 mmHg | renal vasodilation (change in RVC) [3, 10]: 9 ± 2% | binding sites (n) per BTCI molecule (BTCI [4]; pH 5.0, 25 °C): 0.88 | Binding constant Kb (association) of BTCI in complex with peptide (BTCI [4]; pH 5.0, 25 °C): 210 M⁻¹ | Stern-Volmer quenching constant KSV of BTCI in complex with peptide (BTCI [4]; pH 5.0, 25 °C): 502 M⁻¹ | binding sites (n) per BTCI molecule (BTCI [4]; pH 7.4, 25 °C): 1.39 | Binding constant Kb (association) of BTCI in complex with peptide (BTCI [4]; pH 7.4, 25 °C): 9680 M⁻¹ | Stern-Volmer quenching constant KSV of BTCI in complex with peptide (BTCI [4]; pH 7.4, 25 °C): 553 M⁻¹ | binding sites (n) per BTCI molecule (BTCI [4]; pH 9.0, 25 °C): 1.06 | Binding constant Kb (association) of BTCI in complex with peptide (BTCI [4]; pH 9.0, 25 °C): 710 M⁻¹ | Stern-Volmer quenching constant KSV of BTCI in complex with peptide (BTCI [4]; pH 9.0, 25 °C): 468 M⁻¹ | fluorescence intensity of BTCI (Trp^82) on addition of peptide (BTCI [4]; peptide 25 to 500 µM): progressive decrease in fluorescence intensity | polydispersity, peptide [5]: lower than 0.15 | hydrodynamic diameter of BTCI in the presence of peptide (BTCI [6]): increased from 1.7 nm to 3.3 nm | effect of BTCI on Bk-induced smooth muscle contraction ([7]; Bk 5.0 µM): slightly increased the smooth muscle contraction | effect of BTCI on Bk-induced smooth muscle contraction ([7]; Bk 10.0 µM): the same effect only when BTCI inhibited trypsin | smooth muscle contraction ([7]; free peptide, 1, 5, 10 µM, 37 °C, triplicate): able to induce smooth muscle contraction in a concentration-responsive manner | smooth muscle contraction in association with BTCI in the presence of serine proteases ([7]; with BTCI and trypsin or chymotrypsin, 1.0, 5.0, 10.0 µM): able to induce smooth muscle contraction in a concentration-responsive manner even in association with BTCI in the presence of serine proteases

Substance: VPPGFTPFRVD [Bk1, [Val]^1[Thr]^6-bradykinyl-Val-Asp]
product released by trypsin pretreatment in vitro (trypsin; HPLC and mass spectrometry, data not shown): release the active Bk fragment | cleavage by trypsin (site) (trypsin; pretreatment with trypsin): cleaved on Arg^9-Val^10
